Laboratory results published in US20260315446A1, “ANTIFUNGAL COMPOUNDS AND USES THEREOF” (priority 2023, published 2026).

Key:
[1] = test system: germinal center (GC) B cells; assay: In vivo immunosuppression, germinal center B cells (Example 1); parameters: species or system mouse (C57BL/6); conditions: daily i.p., FK506 5 mg/kg or JH-FK-05 60 mg/kg; day 7
Description: (§1) Based on the in vitro evidence of reduced immunosuppressive activity of JH-FK-05, it was hypothesized that this reduction would translate into reduced immunosuppression in an in vivo model. The murine model for immunosuppression measures the T cell-dependent proliferation of two immune cell subtypes in response to immunization with an antigen. Animals were treated daily via intraperitoneal (i.p.) injection with vehicle, 5 mg/kg FK506, or 60 mg/kg JH-FK-05, beginning on day −1 and ending on day 7. […] On day 0, animals were immunized with NP-OVA to stimulate T cell-dependent signaling that would result in proliferation of T follicular helper (Tfh) cells and germinal center (GC) B cells. Animals were sacrificed on day 7, and the proportions of Tfh and GC B cells in the lymph nodes were measured. […]
(§2) Groups of 6 female C57BL/6 mice (Jackson Laboratory) were treated daily by intraperitoneal (i.p.) injection with about 100 μL vehicle, 5 mg/kg FK506, or 60 mg/kg JH-FK-05 beginning on day −1. […] Mice were treated and monitored daily until they were sacrificed on day 7. Draining lymph nodes were harvested on day 7, and the populations of T follicular helper cells and GC B cells were analyzed by flow cytometry. Tfh and GC B cells were measured from T Cell Receptor β (TCRβ^+) CD4^+CD44^hi cells and TCRβ^−CD19^+ cells, respectively.

[2] = test system: T follicular helper (Tfh) cells; assay: In vivo immunosuppression, T follicular helper cells (Example 1); parameters: species or system mouse (C57BL/6); conditions: daily i.p., FK506 5 mg/kg or JH-FK-05 60 mg/kg; day 7
Description: as §1, §2

[3] = biological target: T1, C. albicans FKBP12 and CnA-CnB-calmodulin complex (UniProt C4YFI3+C4YS24+P28870); assay: Biolayer interferometry ternary complex formation; type: binding, Candida albicans; conditions: BLI, 10 μM compound, steady-state and kinetic analyses
T1 construct: N-tagged CnA 54-609, untagged CnB and calmodulin co-expressed in Tni insect cells
T1 sequence (P28870 whole entry): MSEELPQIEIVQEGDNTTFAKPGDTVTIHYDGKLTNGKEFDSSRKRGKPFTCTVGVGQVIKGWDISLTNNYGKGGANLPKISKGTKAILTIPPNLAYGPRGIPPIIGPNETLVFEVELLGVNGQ
T1 sequence (C4YFI3 54-609): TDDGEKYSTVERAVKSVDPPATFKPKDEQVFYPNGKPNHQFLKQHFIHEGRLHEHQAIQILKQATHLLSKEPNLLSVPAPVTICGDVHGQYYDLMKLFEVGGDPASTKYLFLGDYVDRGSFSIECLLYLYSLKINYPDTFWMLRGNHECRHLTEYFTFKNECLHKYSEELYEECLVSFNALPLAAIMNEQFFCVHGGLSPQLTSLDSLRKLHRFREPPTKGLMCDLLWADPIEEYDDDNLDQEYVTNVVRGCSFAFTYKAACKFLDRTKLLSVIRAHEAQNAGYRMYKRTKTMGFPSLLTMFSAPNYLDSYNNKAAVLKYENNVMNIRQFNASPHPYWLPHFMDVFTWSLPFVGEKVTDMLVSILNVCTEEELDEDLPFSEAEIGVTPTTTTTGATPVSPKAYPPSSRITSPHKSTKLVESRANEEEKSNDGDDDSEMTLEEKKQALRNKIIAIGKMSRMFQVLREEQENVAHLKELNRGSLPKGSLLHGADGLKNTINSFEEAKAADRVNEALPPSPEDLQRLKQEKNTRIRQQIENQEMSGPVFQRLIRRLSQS
T1 sequence (C4YS24 1-173): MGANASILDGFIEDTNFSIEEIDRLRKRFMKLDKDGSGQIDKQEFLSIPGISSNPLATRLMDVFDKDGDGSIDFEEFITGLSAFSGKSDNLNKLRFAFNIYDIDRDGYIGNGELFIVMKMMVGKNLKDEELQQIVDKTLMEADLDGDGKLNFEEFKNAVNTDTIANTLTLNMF
T1 sequence (P23286 whole entry partner): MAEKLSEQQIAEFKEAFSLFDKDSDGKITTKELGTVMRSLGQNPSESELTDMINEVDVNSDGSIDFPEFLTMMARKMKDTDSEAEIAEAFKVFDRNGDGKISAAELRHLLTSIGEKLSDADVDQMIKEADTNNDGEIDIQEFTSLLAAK
Description: To better understand the relationship between structure and activity of these analogs, FK506 analog, JH-FK-02 was tested, and one FK520 analog, JH-FK-05 was tested, for their binding dynamics to CnA and CnB by biolayer interferometry (BLI). Purified and biotinylated (Avi-tagged) FKBP12 from A. fumigatus and C. albicans were loaded onto streptavidin sensors in the presence of an inhibitor, followed by titration of the respective CnA-CnB-calmodulin complex, also in the presence of an inhibitor. Data were double referenced using parallel reference sensors and sample blanks.
Biolayer interferometry (BLI) experiments were completed using either A. fumigatus or C. albicans FKBP12 and CnA/CnB/calmodulin complexes, along with compounds FK506, APX879, FK520, JH-FK-02, and JH-FK-05. Initial buffer (25 mM Tris, 200 mM NaCl, and 1 mM TCEP [pH 8.0]) was prepared using 1 M Tris-HCl (pH 8.0, catalog no. T1080; Teknova), 5 M sodium chloride (catalog no. S0251; Teknova), TCEP (catalog no. M115; Soltec Ventures, Inc.), and was readjusted to pH 8 before sterile filtering. […]
Data were processed and analyzed using ForteBio Data Analysis software version 11.1.3.10. […] Kinetics data were analyzed using the “association and dissociation curve fitting” option utilizing a 1:1 model. […]

Row | Compound | proliferation/presence of GC B cells [1] | proliferation/presence of Tfh cells [2] | affinity of target complex formation in presence of analog [3]
1 | C=CCC1C=C(C)CC(C)CC(OC)C2OC(O)(C(=O)C(=O)N3CCCCC3C(=O)OC(C(C)=CC3CCC(O)C(OC)C3)C(C)C(O)CC1=O)C(C)CC2OC (stereo not drawn) [FK506, reference compound] | significantly reduced the proliferation | significantly reduced the proliferation | –
2 | C=CC[C@@H]1/C=C(\C)C[C@H](C)C[C@H](OC)[C@H]2O[C@@](O)(C(=O)C(=O)N3CCCC[C@H]3C(=O)O[C@H](/C(C)=C/[C@@H]3CC[C@@H](O)[C@H](OC)C3)[C@H](C)[C@@H](O)C/C1=N/NC(=O)CC)[C@H](C)C[C@@H]2OC [JH-FK-02] | – | – | affinities similar to those of the parent compounds
3 | CC[C@@H]1/C=C(\C)C[C@H](C)C[C@H](OC)[C@H]2O[C@@](O)(C(=O)C(=O)N3CCCC[C@H]3C(=O)O[C@H](/C(C)=C/[C@@H]3CC[C@@H](O)[C@H](OC)C3)[C@H](C)[C@@H](O)C/C1=N/NC(C)=O)[C@H](C)C[C@@H]2OC [JH-FK-05] | did not reduce the presence of either cell type and was statistically indistinguishable from the vehicle treatment | did not reduce the presence of either cell type and was statistically indistinguishable from the vehicle treatment | affinities similar to those of the parent compounds
